Tested on: cathepsin B (cathepsin B like cysteine protease)

IC50: 6 µM
Compound: CC(C)C[C@H](NC(=O)[C@H]1O[C@@H]1C(=O)O)C(=O)NCCCCNC(=N)N [E-64, L-trans-Epoxysuccinyl-leucylamido (4-guanidino)butane]

Reference: paper PMC3965533, “Inhibition of Cathepsin B by E-64 Induces Oxidative Stress and Apoptosis in Filarial Parasite” (PLoS ONE, 2014)
